Broadly, the melting point is the temperature of the solid-liquid transition.

Here are results for 115 molecules from a melting point compilation (Tetko et al.).

Each structure is given as a SMILES string.

Take `Cc1ccc(P(c2ccccc2)c2ccccc2)cc1`: the melting point is 66 to 68 °C.
For `CC(C)n1c(C(F)(F)F)nc2cc(C(=O)O)ccc21`, the melting point was 172 to 176 °C.
The figure for `COc1cccc2c1C(=O)c1c(O)c3c(c(O)c1C2=O)CC(O)(C(=O)CO)CC3OC1CC(N)C(O)C(C)O1` (stereo not given) is 345 °C; for `COc1ccc(-n2ncc(C=O)c2C)cc1` it is 80 to 82 °C; for `O=C(O)CNc1ccc(Br)cc1C(=O)O` it is 211 to 215 °C.
In turn, `NC(=O)c1cccnc1Oc1ccc(Cl)cc1` displayed a melting point of 150 to 152 °C.
To `CN(C)CCOc1ccc(N)cc1` belongs 55 to 57 °C; to `N[C@H](C(=O)O)C1CCCCC1`, 256 °C.
The figure for `Clc1nc2ccccc2[nH]1` is 200 °C; for `BrC/C=C/CBr` it is 53.4 °C; for `O=C1OC(C2CCCCC2)Cc2ccccc21` (stereo not given) it is 71 to 74 °C.
The molecule `CCCCCCCCCCCCC1CCC1=O` (stereo not given) showed a melting point of 28 to 31 °C.
Molecule `c1ccc2cc3c(cc2c1)CC1OC1C3` (stereo not given) yielded a melting point of 159 to 160 °C.
As to `COc1ccccc1C`, the melting point was -34.1 °C.
With `Nc1ccc(F)c(C(=O)O)c1`, the melting point worked out at 191 °C.
The figure for `NS(=O)(=O)c1ccc(S(=O)(=O)CCO)c(F)c1` is 165 °C; for `CC1=CCC(C)C1=NNc1ccc([N+](=O)[O-])cc1[N+](=O)[O-]` (stereo not given) it is 198 °C; for `COc1ccc(CC(=O)O)c(OC)c1OC` it is 99 to 101 °C.
The figure for `N#Cc1ccc(O)c([N+](=O)[O-])c1` is 143 to 148 °C; for `Nc1ccc(N)c2c1C(=O)c1c(N)ccc(N)c1C2=O` it is 285 °C; for `c1cc2ccc1CCc1ccc(cc1)CC2` it is 285 to 288 °C.
Molecule `N#Cc1ccc2ccccc2n1` showed a melting point of 95 °C.
For the molecule `CN(C)CCc1c[nH]c2cccc(O)c12`, the melting point amounted to 174 °C.
To `Cc1ccc(-c2nnc(-c3ccccc3)c3c(C)onc23)cc1` belongs 206 °C; to `Cc1cc(O)c(C)c(C)c1C`, 85.3 °C; to `OCc1ccc2sccc2c1`, 91 to 92 °C.
The figure for `CCCc1ccc(NC(C)=O)cc1` is 98 to 100 °C; for `COc1ccccc1-c1nnc2n1CN(C(C)C)CS2` it is 207 °C; for `CCOC(=O)c1cc2c(s1)Sc1[nH]c(C(=O)OCC)c(N)c1C2c1ccccc1` (stereo not given) it is 133 °C.
The figure for `Brc1ccc2c(c1)OCCOCCOCCOCCOCCO2` is 79 to 83 °C; for `O=[N+]([O-])c1cccc2cn[nH]c12` it is 187 °C.
With `CSc1sc(C(N)=S)c2c1C(=O)CCC2`, the melting point lay in the range of 232 to 233 °C.
`Cn1ccc(S(=O)(=O)Cl)n1` came in with a melting point of 36 to 39 °C.
The figure for `O=C(O)CC1(CC(=O)O)CCCCC1` is 181 to 185 °C.
The molecule `CCCc1nn(C)c2c(=O)nc(-c3cc(S(=O)(=O)N4CCN(C)CC4)ccc3OCC)[nH]c12` returned a melting point of 190 °C.
The figure for `C=CC(=O)NCO` is 74.5 °C; for `CCCCCCCCn1c(=O)c2cc3c(OC)c4cc5c(=O)n(CCCCCCCC)c(=O)c5cc4c(OC)c3cc2c1=O` it is 238 °C.
The figure for `Cc1cccc(C)c1NC(=O)c1ccc[nH]c1=O` is 266 °C.
The figure for `O=C(Nc1cccc(Br)c1)c1cncc(Cl)n1` is 100 °C; for `CCC(C)(O)C(=O)O` (stereo not given) it is 74 °C; for `COc1ccccc1CCC(=O)O` it is 87 °C.
For the molecule `N#Cc1c(N2CCCC2)cc(Cl)nc1N1CCCC1`, the melting point was in the range of 132 to 140 °C.
The figure for `O=C(O)CCCCc1ccc(F)cc1` is 74 °C.
The figure for `O=S(=O)(Cl)c1cccc(Cl)c1` is 21 °C; for `O=C1N(c2ccccc2)N(c2ccccc2/N=N\c2ccccc2)C1(c1ccccc1)c1ccccc1` it is 163 °C.
With `ClCc1cc(Cl)cc2c1OCOC2`, the melting point was determined as 101 °C.
On to `NC(Cc1ccc(F)cc1Cl)=NO`, for which the melting point lay in the range of 146 to 147 °C.
In turn, `O=C(O)Cc1cccc(I)c1` showed a melting point of 130 °C.
Molecule `CCOC=C(C#N)S(=O)(=O)c1ccc2ccccc2c1` had a melting point of 90 to 92.5 °C.
For the molecule `Cc1ccc2nc(C(F)(F)F)cc(Cl)c2c1[N+](=O)[O-]`, the melting point is 119 to 121 °C.
The figure for `NC(CCCC(F)(F)F)C(=O)O` (stereo not given) is 272 to 274 °C.
In the case of `N#Cc1ccc(-c2cc[nH]n2)cc1`, the melting point turned out to be 141 °C.
As to `N#Cc1c[nH]cc1-c1cccc(Cl)c1Cl`, the melting point was found to be 150 °C.
To `CC(=O)N1CCC[C@H]1C(=O)O` belongs 118 °C.
For `O=C(Oc1c(F)c(F)c(F)c(F)c1F)c1cccc(Oc2ccccn2)c1`, the melting point fell in the range of 60.5 to 61.5 °C.
In the case of `CC(C)(C)OC(=O)NC(CC(N)=O)C(=O)O` (stereo not given), the melting point was in the range of 179 to 182 °C.
`Oc1c(F)cc(F)cc1F` had a melting point of 49.5 °C.
As for `O=C(CS)Nc1ccc(F)cc1`, the melting point fell in the range of 92 to 94 °C.
To `CCCCCCCCCC(N)=O` belongs 108 °C.
To `Nc1ccc(C=Cc2ccccc2)c(N)c1` belongs 116 °C; to `CC(C)(C(=O)O)n1nnc2ccccc21`, 182 °C; to `Cc1cnc2c(ccc3c(C)c(C)cnc32)c1C`, 278 °C.
To `O=Cc1ccc(F)c(Cl)c1` belongs 28 to 30 °C; to `FC(F)(F)c1ccccc1CBr`, 34 to 35 °C; to `Fc1ccc(Br)c(CBr)c1`, 35 °C.
For the molecule `c1ccc(-c2csc3nc4ccccc4n23)cc1`, the melting point lay in the range of 140 to 142 °C.
To `CC1(C)CC(=O)CC(C)(C)N1` belongs 36 °C; to `CCC(C(=O)Nc1ccc(C)cc1)C1CCC(OC)CC1` (stereo not given), 144 °C.
To `CC(=O)CCc1cc2c(cc1[N+](=O)[O-])CCC(C)N2C(=O)c1ccccc1` (stereo not given) belongs 138 °C; to `CCOc1ccc(OCC)c(N)c1`, 85 °C; to `COc1ccc2c(c1)N(CCCN(C)C)c1ccccc1S2`, 46 °C.
The molecule `CCCCCCC(=O)OCCCCC` displayed a melting point of -50 °C.
To `CC12CCC3C(CCC4CC5SC5CC43C)C1CCC2O` (stereo not given) belongs 127 °C; to `O=C(O)C1c2ccccc2C(=O)N(Cc2ccc(F)cc2)C1c1ccncc1` (stereo not given), 243 to 245 °C.
Take `O=C(O)CCCCCCCCCCCC(=O)O`: the melting point fell in the range of 112 to 114 °C.
The figure for `Sc1cc(Cl)c(Cl)cc1Cl` is 117 to 118 °C.
The figure for `COC(=O)c1cc(C)n(C)n1` is 93 °C.
`Cn1nc(-c2ccco2)cc1CO` displayed a melting point of 83 to 85 °C.
Consider `C/C=C/c1ccccc1C(=O)O`, for which the melting point was 81 to 86 °C.
In turn, `N#Cc1c([N+](=O)[O-])ccc(Cl)c1Cl` showed a melting point of 90 to 93 °C.
`COC(=O)C1(C(=O)OC)Cc2ccccc2C(=O)O1` showed a melting point of 113 °C.
`O=C(C1=NOC2C(=O)N(c3ccccc3)C(=O)C12)c1ccccc1` (stereo not given) had a melting point of 161 °C.
The figure for `CC(C)CCCCCCCOC(=O)c1ccccc1C(=O)OCCCCCCCC(C)C` is -45.6 °C; for `CSCC(=O)O` it is 14 °C.
The figure for `Cn1ccccc1=S` is 89.5 °C; for `O=C(O)c1ccnc(N2CCOCC2)c1` it is 180 °C; for `Cc1cc2c(cc1S(N)(=O)=O)S(=O)(=O)CCC2` it is 236 °C.
The figure for `S=C(NN=Cc1c(-c2ccc(Cl)cc2)[nH]c2ccccc12)Nc1ccc(Cl)cc1` is 215 to 217 °C; for `CN(CCO)c1nc2c(c(=O)n(C)c(=O)n2C)n1C` it is 105 °C.
The molecule `N#Cc1c(O)cccc1F` returned a melting point of 156 °C.
To `N=C(N)S(=O)O` belongs 126 °C; to `Cc1ccc(Cl)cc1O`, 73 °C; to `CC(C)Cc1ccc(C(C)C(=O)O)cc1` (stereo not given), 75 °C.
To `COc1cc(F)ccc1C(=O)O` belongs 134 to 136 °C; to `Cc1ccc[nH]1`, -35.6 °C; to `N[C@@H]1CCCC[C@H]1N`, 40 to 45 °C.
The figure for `Cc1c(C(=O)c2ccccc2C(=O)O)sc2ccccc12` is 181 to 183 °C.
Consider `CCCCCCCCCCCC(C)=O`, for which the melting point amounted to 30.5 °C.
In turn, `Cc1ccc(N=C=S)c([N+](=O)[O-])c1` displayed a melting point of 65 °C.
On to `CCOC(=O)c1cc2ccccc2oc1=S`, for which the melting point was found to be 91 °C.
`CSc1nc(N=Cc2ccc(Cl)cc2)nn1C` came in with a melting point of 136 to 138 °C.
Consider `CC1(C)C(N)=[N+]([O-])C(c2ccccc2)N1O` (stereo not given), for which the melting point lay in the range of 208 to 210 °C.
As for `COc1cc(-c2n[nH]c(=S)n2/N=C/c2ccccc2O)cc(OC)c1OC`, the melting point lay within 220 to 222 °C.
`CNC1=C(c2cccc(C(F)(F)F)c2)C(=O)C(c2ccccc2)O1` (stereo not given) registered a melting point of 148 °C.
Take `Cc1oc(-c2ccccc2)cc1-c1ccccc1`: the melting point was 44 °C.
`c1ccc(Cc2cccnc2)cc1` had a melting point of 34 °C.
To `O=[N+]([O-])c1cc(Cl)c(Cl)cc1Cl` belongs 57.5 °C.
Molecule `Nc1ccc2c(c1)C(=O)OC21c2ccc(O)cc2Oc2cc(O)ccc21` came in with a melting point of 223 °C.
In turn, `N#CCc1ccc(Cc2ccccc2)cc1` gave a melting point of 35.5 °C.
To `COC(=O)c1ccc2[nH]cnc2c1` belongs 139 to 143 °C.
`CCOc1ccc(OC(=O)c2ccccc2)cc1` gave a melting point of 104 °C.
The figure for `O=Cc1ccc2ncccc2c1` is 74 to 75 °C.
To `O=C1Nc2c(Br)cccc2C1=O` belongs 199 to 200 °C; to `O=C(Oc1ccccn1)Oc1ccccn1`, 90 °C; to `Nc1c(C(=O)O)sc2nccnc12`, 250 °C.
